Patent US20140057915A1, “KINASE INHIBITORS” (TOPIVERT PHARMA LIMITED, priority 2012, published 2014)

Key:
[1] = molecular target: cSrc (Homo sapiens, UniProt P12931); assay: c-Src enzyme inhibition (FRET); format: biochemical
Procedure, shortened: (§1)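 2 hr RT enzyme + cpd (added solns 4/0.4/0.04/0.004 μg/mL); + FRET peptide (8 μM soln) + ATP soln (c-Src 800 μM, Syk 60 μM), 1 hr; protease development 1 hr; read donor/acceptor emission ratio.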

[2] = molecular target: Syk (Homo sapiens, UniProt P43405); assay: Syk enzyme inhibition (FRET); format: biochemical
Procedure, shortened: as §1

[3] = molecular target: T1, GSK3α (Homo sapiens, UniProt P49840); assay: GSK 3α enzyme inhibition (FRET), Method 1; format: biochemical; conditions: Table 4a1
Procedure, shortened: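 GSK3α was preincubated with test compound for 2 hr at RT, then a FRET peptide substrate and ATP were added for 1 hr. Protease development for 1 hr cleaved only non-phosphorylated peptide, and phosphorylation was read as the coumarin/fluorescein emission ratio. Concentrations given are those of the added solutions: enzyme 500 ng/mL, peptide 8 μM, ATP 40 μM.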

[4] = tested on: TNFα release, d-U937 cells; assay: LPS-induced TNFα release in d-U937 cells; format: cell-based; conditions: Homo sapiens, dU937; relative to 10 μg/mL BIRB796; Table 4c1; read-out: LPS Induced Release of Cytokine in d-U937 Cells, TNFα REC50
Procedure, shortened: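 Sandwich ELISA quantifies cytokine in supernatants after 4 hr LPS challenge (0.1 μg/mL) of PMA-differentiated (100 ng/mL, 48–72 hr) U937 macrophages given compound 2 hr beforehand. REC50 derived from concentration-response curve, inhibition calculated relative to vehicle.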

[5] = tested on: IL-8 release, d-U937 cells; assay: LPS-induced IL-8 release in d-U937 cells; format: cell-based; conditions: Homo sapiens, dU937; Table 4c1; read-out: LPS Induced Release of Cytokine in d-U937 Cells, IL-8 IC50
Procedure, shortened: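 IL-8 release after a 4 hr challenge with LPS (0.1 μg/mL, E. coli 0111:B4) following a 2 hr compound pretreatment. Cells were human U937 monocytes differentiated to macrophage-type with PMA 100 ng/mL for 48–72 hr. Relative 50% effective concentration derived from concentration–response data.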

[6] = tested on: ICAM-1 expression, BEAS2B cells; assay: Poly I:C-induced ICAM-1 expression in BEAS2B cells; format: cell-based; conditions: Homo sapiens, BEAS-2B; read-out: Poly IC induced ICAM1 in BEAS2B, IC50
Procedure, shortened: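 Cell-based ELISA for surface ICAM-1 in human BEAS2B cells 18 h after transfection with the RNA-virus mimic poly I:C (1 μg/mL, with Oligofectamine), compounds added 2 h beforehand. OD450–655 divided by Crystal Violet OD595 per well; percent inhibition relative to vehicle.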

[7] = tested on: PBMC cells; assay: Cell mitosis assay; format: cell-based; conditions: Homo sapiens, read-out: % Inhibition of mitosis in PBMC cells at 5 μg/mL
Description: PBMCs from healthy subjects are separated from whole blood (Quintiles, London, UK) using a density gradient (Histopaque®-1077, Sigma-Aldrich, Poole, UK). The PBMCs (3 million cells per sample) are subsequently treated with 2% PHA (Sigma-Aldrich, Poole, UK) for 48 hr, followed by a 20 hr exposure to varying concentrations of test compounds. At 2 hr before collection, PBMCs are treated with demecolcine (0.1 μg/mL; Invitrogen, Paisley, UK) to arrest cells in metaphase. […] Fluorescence is observed using an ATTUNE flow cytometer (Invitrogen, Paisley, UK), gating for lymphocytes.

[8] = tested on: d-U937 cells; assay: Cell viability: MTT assay; format: cell-based, human; conditions: 1 μg/mL
Procedure, shortened: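 MTT reduction (1 h, DMSO solubilisation, A550) measured after compound treatment at 1 or 10 μg/mL of differentiated U937 cells for 4 h (5% FCS RPMI1640) or 24 h (10% FCS). Percentage viability loss computed relative to 0.5% DMSO vehicle, with increases tabulated as negative values.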

[9] = molecular target: T1, GSK3α; assay: GSK 3α enzyme inhibition (FRET), Method 2; format: biochemical; conditions: Table 4a2, different laboratory
[10] = tested on: IL-8 release, PBMCs; assay: LPS-induced IL-8 release in PBMC cells; format: cell-based; conditions: Homo sapiens, LPS stimulated, read-out: IC50 Values for Inhibition of Cytokine Release, PBMCs, IL-8
Description: (b) LPS-Induced TNFα/IL-8 Release in PBMC Cells
Peripheral blood mononuclear cells (PBMCs) from healthy subjects are separated from whole blood using a density gradient (Lymphoprep, Axis-Shield Healthcare). The PBMCs are seeded in 96 well plates and treated with compounds at the desired concentration for 2 hours before addition of 1 ng/ml LPS (Escherichia Coli 0111:B4 from Sigma Aldrich) for 24 hours under normal tissue culture conditions (37° C., 5% CO2). The supernatant is harvested for determination of […] concentrations by sandwich ELISA (Duo-set, R&D systems) and read on the fluorescence microplate reader (Varioskan® Flash, ThermoFisher Scientific).

[11] = Table 4a2, different laboratory

cSrc, sequence (P12931 whole entry): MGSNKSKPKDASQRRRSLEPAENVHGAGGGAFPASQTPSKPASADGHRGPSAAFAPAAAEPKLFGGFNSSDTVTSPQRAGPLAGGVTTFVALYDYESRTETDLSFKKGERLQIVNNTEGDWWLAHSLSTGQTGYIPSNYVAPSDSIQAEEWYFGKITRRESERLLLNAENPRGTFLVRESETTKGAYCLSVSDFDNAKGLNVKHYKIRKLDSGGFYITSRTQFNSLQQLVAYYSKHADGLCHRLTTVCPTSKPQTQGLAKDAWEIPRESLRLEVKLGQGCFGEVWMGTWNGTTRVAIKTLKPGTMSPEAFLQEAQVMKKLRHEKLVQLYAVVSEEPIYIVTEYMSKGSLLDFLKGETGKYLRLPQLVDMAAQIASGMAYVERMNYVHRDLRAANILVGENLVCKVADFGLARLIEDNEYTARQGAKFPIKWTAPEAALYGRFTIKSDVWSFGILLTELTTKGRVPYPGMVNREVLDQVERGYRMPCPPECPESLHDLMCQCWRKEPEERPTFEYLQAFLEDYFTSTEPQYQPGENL
T1 sequence (P49840 whole entry): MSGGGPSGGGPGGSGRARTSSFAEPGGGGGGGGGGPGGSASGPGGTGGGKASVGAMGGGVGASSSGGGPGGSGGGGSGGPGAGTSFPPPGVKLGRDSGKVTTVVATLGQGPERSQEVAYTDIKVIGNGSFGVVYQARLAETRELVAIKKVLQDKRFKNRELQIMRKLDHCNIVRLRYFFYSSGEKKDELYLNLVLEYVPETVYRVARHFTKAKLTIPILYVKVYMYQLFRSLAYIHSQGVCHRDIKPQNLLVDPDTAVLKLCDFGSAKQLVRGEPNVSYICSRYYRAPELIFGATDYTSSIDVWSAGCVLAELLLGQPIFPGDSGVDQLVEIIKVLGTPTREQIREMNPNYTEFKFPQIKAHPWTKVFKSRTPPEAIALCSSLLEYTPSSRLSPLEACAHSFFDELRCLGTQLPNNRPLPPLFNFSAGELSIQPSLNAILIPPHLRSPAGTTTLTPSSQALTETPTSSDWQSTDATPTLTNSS

Row | Compound | IC50 ([1]; Table 4a1) [nM] | IC50 ([2]; Table 4a1) [nM] | IC50 [3] [nM] | EC50 [4] [nM] | IC50 [5] [nM] | IC50 [9] [nM] | IC50 [1, 11] [nM] | IC50 [2, 11] [nM] | IC50 [6] [nM] | inhibition at 5 µg/mL [7] [%] | Cell viability at time point in d-U937 cells, 4 h [8] | Cell viability at time point in d-U937 cells, 24 h [8] | IC50 [10] [nM]
1 | Cc1ccc(-n2nc(C(C)(C)C)cc2NC(=O)Nc2ccc(Oc3ccnc(Nc4cccc(C(N)=O)c4)n3)c3ccccc23)cc1 [Example 2, 3-((4-((4-(3-(3-(tert-Butyl)-1-(p-tolyl)-1H-pyrazol-5-yl)ureido)naphthalen-1-yl)oxy)pyrimidin-2-yl)amino)benzamide] | 5 | 250 | 1260 | 0.8 | 4.5 | – | – | – | 1 | 46.5 | −ve (−ve and +ve indicate that the value is below and above respectively, the no significant effect threshold, defined as 30% inhibition at 1 μg/mL at the time point indicated) | −ve (−ve and +ve indicate that the value is below and above respectively, the no significant effect threshold, defined as 30% inhibition at 1 μg/mL at the time point indicated) | –
2 | Cc1ccc(-n2nc(C(C)C)cc2NC(=O)Nc2ccc(Oc3ccnc(Nc4cccc(C(=O)NCCN5CCOCC5)c4)n3)c3ccccc23)cc1 [Example 19, 3-((4-((4-(3-(3-isopropyl-1-(p-tolyl)-1H-pyrazol-5-yl)ureido)naphthalen-1-yl)oxy)pyrimidin-2-yl)amino)-N-(2-morpholinoethyl)benzamide] | – | 4 | 1240 | 0.3 | 0.2 | – | – | – | – | 25.3 | −ve (−ve and +ve indicate that the value is below and above respectively, the no significant effect threshold, defined as 30% inhibition at 1 μg/mL at the time point indicated) | −ve (−ve and +ve indicate that the value is below and above respectively, the no significant effect threshold, defined as 30% inhibition at 1 μg/mL at the time point indicated) | –
3 | COc1cc(C(=O)NCCN2CCOCC2)ccc1Nc1nccc(Oc2ccc(NC(=O)Nc3cc(C(C)C)nn3-c3ccc(C)cc3)c3ccccc23)n1 [Example 36, 4-((4-((4-(3-(3-isopropyl-1-(p-tolyl)-1H-pyrazol-5-yl)ureido)naphthalen-1-yl)oxy)pyrimidin-2-yl)amino)-3-methoxy-N-(2-morpholinoethyl)benzamide] | 8 | 169 | > 13200 | 4.7 | 46 | ≥ 13200 | – | – | 82.3 | – | −ve (−ve and +ve indicate that the value is below and above respectively, the no significant effect threshold, defined as 30% inhibition at 1 μg/mL at the time point indicated) | −ve (−ve and +ve indicate that the value is below and above respectively, the no significant effect threshold, defined as 30% inhibition at 1 μg/mL at the time point indicated) | 30.4
4 | CCc1cc(NC(=O)Nc2ccc(Oc3ccnc(Nc4cc(OC)cc(C(=O)NCCN5CCOCC5)c4)n3)c3ccccc23)n(-c2ccc(C)cc2)n1 [Example 49, 3-((4-((4-(3-(3-ethyl-1-(p-tolyl)-1H-pyrazol-5-yl)ureido)naphthalen-1-yl)oxy)pyrimidin-2-yl)amino)-5-methoxy-N-(2-morpholinoethyl)benzamide] | 1 | 57 | > 13500 | 9.2 | 17.2 | ≥ 13500 | – | – | 33 | – | −ve (−ve and +ve indicate that the value is below and above respectively, the no significant effect threshold, defined as 30% inhibition at 1 μg/mL at the time point indicated) | −ve (−ve and +ve indicate that the value is below and above respectively, the no significant effect threshold, defined as 30% inhibition at 1 μg/mL at the time point indicated) | 19
5 | C#Cc1cc(Nc2nccc(Oc3ccc(NC(=O)Nc4cc(C(F)(F)C(F)(F)F)nn4-c4ccc(C)cc4)c4ccccc34)n2)cc(C(=O)NCCN2CCOCC2)c1 [Example 74, 3-Ethynyl-N-(2-morpholinoethyl)-5-((4-((4-(3-(3-(perfluoroethyl)-1-(p-tolyl)-1H-pyrazol-5-yl)ureido)naphthalen-1-yl)oxy)pyrimidin-2-yl)amino)benzamide] | – | – | – | – | – | ≥ 12100 | – | – | – | – | – | – | 4.1
6 | C#Cc1cc(Nc2nccc(Oc3ccc(NC(=O)Nc4cc(C(C)(C)OC)nn4-c4ccc(C)cc4)c4ccccc34)n2)cc(C(=O)NCCN2CCOCC2)c1 [Example 79, 3-Ethynyl-5-((4-((4-(3-(3-(2-methoxypropan-2-yl)-1-(p-tolyl)-1H-pyrazol-5-yl)ureido)naphthalen-1-yl)oxy)pyrimidin-2-yl)amino)-N-(2-morpholinoethyl)benzamide] | – | – | – | – | – | 756 | – | – | – | – | – | – | 1.1

Now from value to molecule, other results behind:

Row | IC50 ([1]; Table 4a1) [nM] | IC50 ([2]; Table 4a1) [nM] | IC50 [3] [nM] | EC50 [4] [nM] | IC50 [5] [nM] | IC50 [9] [nM] | IC50 [1, 11] [nM] | IC50 [2, 11] [nM] | Compound | IC50 [6] [nM] | inhibition at 5 µg/mL [7] [%] | Cell viability at time point in d-U937 cells, 4 h [8] | Cell viability at time point in d-U937 cells, 24 h [8] | IC50 [10] [nM]
7 | – | – | – | – | – | 5840 | 22 | 27 | C#Cc1cc(Nc2nccc(Oc3ccc(NC(=O)Nc4cc(C(C)C)nn4-c4ccc(C)cc4)c(Cl)c3Cl)n2)cc(C(=O)NCCN2CCOCC2)c1 [Example 87, 3-((4-(2,3-Dichloro-4-(3-(3-isopropyl-1-(p-tolyl)-1H-pyrazol-5-yl)ureido)-phenoxy)pyrimidin-2-yl)amino)-5-ethynyl-N-(2-morpholinoethyl)benzamide] | – | – | – | – | 9.4
8 | – | – | – | – | – | 172 | – | – | C#Cc1cc(Nc2nccc(Oc3ccc(NC(=O)Nc4cc(C(C)C)nn4-c4ccc(C)cc4)c(F)c3F)n2)cc(C(=O)NCCN2CCOCC2)c1 [Example 88, 3-((4-(2,3-Difluoro-4-(3-(3-isopropyl-1-(p-tolyl)-1H-pyrazol-5-yl)ureido)-phenoxy)pyrimidin-2-yl)amino)-5-ethynyl-N-(2-morpholinoethyl)benzamide] | – | – | – | – | 13.1
9 | – | – | – | – | – | ≥ 15300 | – | – | C#Cc1cc(Nc2nccc(Oc3ccc(NC(=O)Nc4cc(C(C)C)nn4-c4ccc(C)cc4)c(Cl)c3Cl)n2)cc(C(N)=O)c1 [Example 89, 3-((4-(2,3-Dichloro-4-(3-(3-isopropyl-1-(p-tolyl)-1H-pyrazol-5-yl)ureido)-phenoxy)pyrimidin-2-yl)amino)-5-ethynylbenzamide] | – | – | – | – | 14.6
10 | – | – | – | – | – | 154 | – | – | C#Cc1cc(Nc2nccc(Oc3ccc(NC(=O)Nc4cc(C(C)C)nn4-c4ccc(C)cc4)c(Cl)c3Cl)n2)cc(C(=O)NCCN(C)C)c1 [Example 90, 3-((4-(2,3-Dichloro-4-(3-(3-isopropyl-1-(p-tolyl)-1H-pyrazol-5-yl)ureido)-phenoxy)pyrimidin-2-yl)amino)-N-(2-(dimethylamino)ethyl)-5-ethynylbenzamide] | – | – | – | – | 7.8
